Laboratory results taken from patent US8415469B2, “Compounds and methods for kinase modulation, and indications therefor” (Plexxikon Inc., priority 2005, dated 2013).

Tests used:
Assay type in all cases: biochemical
Stk6 = target: T1, Stk6 (Homo sapiens, UniProt O14965); assay: Z'-Lyte FRET kinase assay (Invitrogen), Stk6; conditions: read-out: IC50, activity toward kinase Stk6
T1 construct: purchased Invitrogen (Carlsbad, Calif.), screening service
T1 sequence (O14965 1-403): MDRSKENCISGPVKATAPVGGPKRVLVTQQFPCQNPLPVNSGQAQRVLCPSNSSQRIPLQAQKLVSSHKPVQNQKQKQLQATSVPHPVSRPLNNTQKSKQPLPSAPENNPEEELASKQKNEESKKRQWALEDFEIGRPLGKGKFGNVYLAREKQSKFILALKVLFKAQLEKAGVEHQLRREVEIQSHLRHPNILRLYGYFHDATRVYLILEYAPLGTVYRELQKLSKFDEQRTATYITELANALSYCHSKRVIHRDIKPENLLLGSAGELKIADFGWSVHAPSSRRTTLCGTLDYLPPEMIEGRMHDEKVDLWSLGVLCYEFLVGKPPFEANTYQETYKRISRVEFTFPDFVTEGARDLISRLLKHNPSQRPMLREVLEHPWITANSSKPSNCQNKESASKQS

MAPKAPK2 = target: T2, MAPKAPK2 (Homo sapiens, UniProt P49137); assay: Z'-Lyte FRET kinase assay (Invitrogen), MAPKAPK2; conditions: read-out: IC50, activity toward kinase MAPKAPK2
T2 construct: purchased Invitrogen (assay run by Invitrogen)
Text: The effect of potential modulators of kinase activity can be measured in a variety of different assays known in the art. For example, direct radiometric, indirect FRET or AlphaScreen assays may be used to assess the level of phosphorylation of a substrate in the presence of test compounds in order to determine the inhibitory affect of the compound on the kinase. Invitrogen (Carlsbad, Calif.) uses a FRET based assay for Btk, EGFR, EphB2, Flt3, lrak4, Kdr, MAP2K1, MAPKAPK2, PDGFRB, PKC theta, Stk6 and Yes. For these assays, compounds of the invention were screened by Invitrogen using Z′-Lyte™ kinase assay.
Briefly, the Invitrogen kinase assay involves use of a specific peptide substrate optimized for each kinase, containing a fluorophore at each end that make up the FRET pair. The peptide sensitivity to proteolytic cleavage depends on phosphorylation of the peptide. Non-phosphorylated peptide is cleaved by a protease while peptide phosphorylated by the kinase is not cleaved. Cleavage of the peptide disrupts the FRET between the donor (coumarin) and acceptor (fluorescein) fluorophores, resulting in an increase in the ratio of donor emission to acceptor emission. The emission ratio of coumarin to fluorescein is used to assess the reaction progress. The extent of phosphorylation is determined from the emission ratio, which is low when the kinase is active (phosphorylated peptide is not cleaved, FRET pair connected) or higher for inhibited kinase (non-phosphorylated peptide is cleaved, FRET pair separated). Thus, the assay involves a kinase reaction in the presence of varying concentrations of a given compound, a development reaction with site specific protease, and detection of the fluorescent emission ratio of coumarin and fluorscein. […] Reaction conditions for each kinase are determined to provide optimal reaction times, incubation temperature, kinase and ATP concentrations. Test samples are made up in 1× kinase buffer (50 mM HEPES pH 7.5, 50 mM MgCl2, 5 mM EGTA, 0.05% BRIJ-35) and compound at desired concentration prepared in DMSO such that the final DMSO is 1%. […] Typically, assay plates are prepared to 10 μl final volume per sample, adding 2.5 μl of compound at 4× the desired concentration in 4% DMSO (serial dilution of compound provides concentration curve), 5 μl of the desired kinase mixed with Z′-LYTE™ peptide substrate (2× in 2× kinase buffer, final peptide at 2 μM), and 2.5 μl of 4×ATP solution. All kinase except for MAP2K1 were at 10 μM ATP in the kinase reaction, while MAP2K1 was at 100 μM. Samples are mixed and the kinase reaction is incubated 1 hour at room temperature, after which 5 μl of development solution is added and mixed. After incubation for another 1 hour at room temperature, 5 μl of stop reagent is added to each sample and mixed. The fluorescence signals are measured to determine the emission ratio.

Kdr = target: T3, Kdr (Homo sapiens, UniProt P35968); assay: Z'-Lyte FRET kinase assay (Invitrogen), Kdr; conditions: read-out: IC50, activity toward kinase Kdr
T3 construct: purchased Invitrogen (assay run by Invitrogen)
T3 sequence (P35968 20-1356): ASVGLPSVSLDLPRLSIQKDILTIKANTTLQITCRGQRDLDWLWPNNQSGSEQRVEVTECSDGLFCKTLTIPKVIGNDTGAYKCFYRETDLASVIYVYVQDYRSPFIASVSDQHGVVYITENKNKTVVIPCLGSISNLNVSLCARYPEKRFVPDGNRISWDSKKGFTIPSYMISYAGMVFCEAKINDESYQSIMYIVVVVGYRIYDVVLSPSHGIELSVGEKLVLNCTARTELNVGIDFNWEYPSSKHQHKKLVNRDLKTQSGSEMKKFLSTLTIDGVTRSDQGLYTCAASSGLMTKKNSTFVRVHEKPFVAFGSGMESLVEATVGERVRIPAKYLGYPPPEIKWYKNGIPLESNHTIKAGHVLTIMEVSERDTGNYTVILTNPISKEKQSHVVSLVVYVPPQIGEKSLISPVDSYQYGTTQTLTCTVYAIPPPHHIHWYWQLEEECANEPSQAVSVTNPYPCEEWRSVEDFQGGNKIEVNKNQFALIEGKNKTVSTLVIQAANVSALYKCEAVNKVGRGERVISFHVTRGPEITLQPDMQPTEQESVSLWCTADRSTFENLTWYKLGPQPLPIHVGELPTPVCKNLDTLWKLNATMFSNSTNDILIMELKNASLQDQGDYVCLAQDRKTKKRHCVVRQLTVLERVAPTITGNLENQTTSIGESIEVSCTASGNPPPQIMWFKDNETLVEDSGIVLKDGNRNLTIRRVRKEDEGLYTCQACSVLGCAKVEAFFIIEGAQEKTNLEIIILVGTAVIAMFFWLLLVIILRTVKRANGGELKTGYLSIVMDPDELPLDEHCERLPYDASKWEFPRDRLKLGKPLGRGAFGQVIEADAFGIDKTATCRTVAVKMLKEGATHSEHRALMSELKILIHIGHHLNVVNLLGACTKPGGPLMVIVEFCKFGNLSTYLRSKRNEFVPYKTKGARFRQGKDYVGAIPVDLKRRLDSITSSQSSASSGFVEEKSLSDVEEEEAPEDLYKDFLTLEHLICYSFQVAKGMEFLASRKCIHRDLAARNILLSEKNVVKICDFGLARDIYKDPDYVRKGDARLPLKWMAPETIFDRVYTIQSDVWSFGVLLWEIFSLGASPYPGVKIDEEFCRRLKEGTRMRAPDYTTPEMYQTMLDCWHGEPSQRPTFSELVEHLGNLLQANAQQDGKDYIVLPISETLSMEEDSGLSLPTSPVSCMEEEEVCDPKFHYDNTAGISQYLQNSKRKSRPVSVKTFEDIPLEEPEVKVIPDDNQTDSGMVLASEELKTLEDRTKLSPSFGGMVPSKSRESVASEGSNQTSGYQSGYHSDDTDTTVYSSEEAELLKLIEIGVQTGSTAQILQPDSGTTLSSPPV

Abl = target: T4, Abl (Homo sapiens, UniProt P00519); assay: AlphaScreen kinase assay, Abl; conditions: read-out: activity toward kinase Abl, IC50
T4 construct: P1121. pET-SPEC BI-PTP Abl G227-V515-X; His6 (N); made in house; host or cells: E. coli (PTP1B co-expressed)
T4 sequence (P00519 with tags, fused parts or gaps): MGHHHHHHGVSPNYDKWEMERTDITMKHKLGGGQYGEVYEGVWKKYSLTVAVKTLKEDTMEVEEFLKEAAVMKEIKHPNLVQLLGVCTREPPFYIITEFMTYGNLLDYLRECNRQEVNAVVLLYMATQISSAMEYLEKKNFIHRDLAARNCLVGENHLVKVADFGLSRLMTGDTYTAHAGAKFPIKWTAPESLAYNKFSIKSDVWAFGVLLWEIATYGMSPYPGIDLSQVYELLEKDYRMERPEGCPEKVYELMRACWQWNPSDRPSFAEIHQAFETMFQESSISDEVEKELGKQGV
In short: (§1)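 Here, phosphorylation of a biotin-tagged peptide was sensed by proximity of streptavidin donor and antibody-bearing acceptor beads. Test compounds covered 8 concentrations by 1:3 serial dilution of 20 mM DMSO stocks.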

B-Raf V600E = target: T5, B-Raf V600E (Homo sapiens, UniProt P15056, V600E); assay: AlphaScreen kinase assay, B-Raf V600E; conditions: read-out: IC50, activity toward kinase B-Raf V600E
T5 construct: P4254. pFastBacBD-CDC37 BRAF D437-K722-X, V600E; His6 with pFastBac HT leader (TEV site) (N); made in house; host or cells: Sf9 (baculovirus; chaperone CDC37 co-expressed)
T5 sequence (P15056 with tags, fused parts or gaps V600E): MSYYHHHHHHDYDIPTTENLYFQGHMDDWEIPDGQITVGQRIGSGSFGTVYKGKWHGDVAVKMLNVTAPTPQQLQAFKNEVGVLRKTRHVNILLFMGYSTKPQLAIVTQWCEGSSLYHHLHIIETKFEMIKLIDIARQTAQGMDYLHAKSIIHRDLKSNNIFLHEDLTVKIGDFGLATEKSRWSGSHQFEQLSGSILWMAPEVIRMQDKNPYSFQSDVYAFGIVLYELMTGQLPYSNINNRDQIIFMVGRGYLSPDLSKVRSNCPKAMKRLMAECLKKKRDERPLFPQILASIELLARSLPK

Ret = target: T6, Ret (Homo sapiens, UniProt P07949); assay: AlphaScreen kinase assay, Ret; conditions: read-out: IC50, activity toward kinase Ret
T6 construct: P1378.pET-SF BI-PTP RET H661-R1012 HIS; made in house
T6 sequence (P07949 with tags, fused parts or gaps): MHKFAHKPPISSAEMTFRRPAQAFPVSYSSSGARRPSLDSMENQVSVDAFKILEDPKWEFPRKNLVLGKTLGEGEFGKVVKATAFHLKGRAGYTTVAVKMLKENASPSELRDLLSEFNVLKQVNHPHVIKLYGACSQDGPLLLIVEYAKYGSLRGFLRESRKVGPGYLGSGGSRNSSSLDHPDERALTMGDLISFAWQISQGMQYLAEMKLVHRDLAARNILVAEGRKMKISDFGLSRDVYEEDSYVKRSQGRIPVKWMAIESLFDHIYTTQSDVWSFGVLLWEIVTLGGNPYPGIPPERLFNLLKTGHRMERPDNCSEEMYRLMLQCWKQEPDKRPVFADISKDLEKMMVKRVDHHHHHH

Jnk1 = target: T7, Jnk1 (Homo sapiens, UniProt P45983); assay: AlphaScreen kinase assay, Jnk1; conditions: read-out: IC50, activity toward kinase Jnk1
T7 construct: purchased Upstate Biotechnology
T7 sequence (P45983 whole entry): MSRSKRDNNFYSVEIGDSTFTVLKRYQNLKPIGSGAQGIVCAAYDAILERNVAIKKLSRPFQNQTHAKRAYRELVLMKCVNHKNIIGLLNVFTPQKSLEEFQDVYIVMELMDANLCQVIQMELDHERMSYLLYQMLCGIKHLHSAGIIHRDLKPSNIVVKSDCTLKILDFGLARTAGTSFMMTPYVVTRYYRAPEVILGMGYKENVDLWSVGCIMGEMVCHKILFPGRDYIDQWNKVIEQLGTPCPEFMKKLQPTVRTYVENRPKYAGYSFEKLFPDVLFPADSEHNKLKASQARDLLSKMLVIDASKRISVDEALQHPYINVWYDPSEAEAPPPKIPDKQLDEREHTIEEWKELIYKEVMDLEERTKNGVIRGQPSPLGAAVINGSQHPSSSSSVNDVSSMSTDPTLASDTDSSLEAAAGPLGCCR

B-Raf = target: T8, B-Raf (Homo sapiens, UniProt P15056); assay: AlphaScreen kinase assay, B-Raf; conditions: read-out: IC50, activity toward kinase B-Raf
T8 construct: purchased Upstate Biotechnology
T8 sequence (P15056 whole entry): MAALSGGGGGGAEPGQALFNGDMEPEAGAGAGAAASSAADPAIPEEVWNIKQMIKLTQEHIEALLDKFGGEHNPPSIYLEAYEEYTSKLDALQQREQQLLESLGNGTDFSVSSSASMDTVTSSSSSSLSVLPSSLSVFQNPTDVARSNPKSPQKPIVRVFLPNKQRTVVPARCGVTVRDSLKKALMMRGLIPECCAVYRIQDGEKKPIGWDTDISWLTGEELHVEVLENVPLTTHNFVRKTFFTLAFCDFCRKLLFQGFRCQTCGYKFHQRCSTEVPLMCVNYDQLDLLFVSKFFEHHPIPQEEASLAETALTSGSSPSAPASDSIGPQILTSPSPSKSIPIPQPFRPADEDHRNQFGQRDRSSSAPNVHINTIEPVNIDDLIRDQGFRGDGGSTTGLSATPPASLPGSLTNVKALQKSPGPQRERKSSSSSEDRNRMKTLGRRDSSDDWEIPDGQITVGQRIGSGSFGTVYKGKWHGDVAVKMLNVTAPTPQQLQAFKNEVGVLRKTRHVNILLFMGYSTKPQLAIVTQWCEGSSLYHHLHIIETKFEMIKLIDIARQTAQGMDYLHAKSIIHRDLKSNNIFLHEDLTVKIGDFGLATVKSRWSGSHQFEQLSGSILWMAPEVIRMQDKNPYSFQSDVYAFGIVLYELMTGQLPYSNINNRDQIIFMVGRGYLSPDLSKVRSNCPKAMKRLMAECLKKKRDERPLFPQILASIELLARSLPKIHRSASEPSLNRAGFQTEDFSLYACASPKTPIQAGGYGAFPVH

Jnk2 = target: T9, Jnk2 (Homo sapiens, UniProt P45984); assay: AlphaScreen kinase assay, Jnk2; conditions: read-out: IC50, activity toward kinase Jnk2
T9 construct: purchased Roche Protein Expression Group (Indianapolis, IN)
T9 sequence (P45984 whole entry): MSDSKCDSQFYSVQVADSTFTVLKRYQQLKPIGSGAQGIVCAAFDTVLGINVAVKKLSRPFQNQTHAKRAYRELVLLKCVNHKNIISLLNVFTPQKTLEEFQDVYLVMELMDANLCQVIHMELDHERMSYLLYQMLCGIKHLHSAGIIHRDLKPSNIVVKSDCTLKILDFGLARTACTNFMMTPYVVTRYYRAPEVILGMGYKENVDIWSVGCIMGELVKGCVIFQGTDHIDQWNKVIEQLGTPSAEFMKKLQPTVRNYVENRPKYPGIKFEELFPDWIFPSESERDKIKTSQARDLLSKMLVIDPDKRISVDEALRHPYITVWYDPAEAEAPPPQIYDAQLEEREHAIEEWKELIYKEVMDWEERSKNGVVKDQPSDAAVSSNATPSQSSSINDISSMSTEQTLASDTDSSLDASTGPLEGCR
In short: as §1

Jnk3 = target: T10, Jnk3 (Homo sapiens, UniProt P53779); assay: AlphaScreen kinase assay, Jnk3; conditions: read-out: IC50, activity toward kinase Jnk3
T10 construct: purchased Upstate Biotechnology
T10 sequence (P53779 whole entry): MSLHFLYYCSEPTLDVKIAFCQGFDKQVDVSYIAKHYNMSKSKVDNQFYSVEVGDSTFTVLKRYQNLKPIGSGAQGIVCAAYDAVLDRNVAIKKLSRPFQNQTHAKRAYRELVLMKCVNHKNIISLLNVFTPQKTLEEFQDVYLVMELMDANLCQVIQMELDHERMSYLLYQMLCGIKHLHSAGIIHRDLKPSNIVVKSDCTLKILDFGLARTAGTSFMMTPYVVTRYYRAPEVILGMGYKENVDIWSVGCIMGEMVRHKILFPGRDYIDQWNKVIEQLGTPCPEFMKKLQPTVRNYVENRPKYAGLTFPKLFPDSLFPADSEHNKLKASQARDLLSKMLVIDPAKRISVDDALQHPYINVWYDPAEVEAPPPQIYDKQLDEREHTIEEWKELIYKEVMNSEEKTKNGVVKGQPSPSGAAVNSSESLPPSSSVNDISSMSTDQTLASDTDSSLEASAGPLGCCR

Fak = target: T11, Fak (Homo sapiens, UniProt Q05397); assay: AlphaScreen kinase assay, Fak; conditions: read-out: IC50, activity toward kinase Fak
T11 construct: P1358.pFastBacHtb FAK S411-Q686-X; His6 with pFastBacHTb leader (TEV site) (N); made in house; host or cells: Sf9 (baculovirus)
T11 sequence (Q05397 411-686): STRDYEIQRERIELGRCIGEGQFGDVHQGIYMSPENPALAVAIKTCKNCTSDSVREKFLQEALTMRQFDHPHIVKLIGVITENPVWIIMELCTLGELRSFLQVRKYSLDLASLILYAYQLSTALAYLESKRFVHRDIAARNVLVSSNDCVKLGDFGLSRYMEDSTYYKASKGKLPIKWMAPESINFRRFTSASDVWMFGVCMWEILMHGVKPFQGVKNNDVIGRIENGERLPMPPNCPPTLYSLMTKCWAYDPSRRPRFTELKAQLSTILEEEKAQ

Kit = target: T12, Kit (Homo sapiens, UniProt P10721); assay: AlphaScreen kinase assay, Kit; conditions: read-out: IC50, activity toward kinase Kit
T12 construct: P1332.N6 BI PTP KIT M552-K948-X COD; His6 (N); made in house; host or cells: E. coli (PTP1B co-expressed)
T12 sequence (P10721 with tags, fused parts or gaps): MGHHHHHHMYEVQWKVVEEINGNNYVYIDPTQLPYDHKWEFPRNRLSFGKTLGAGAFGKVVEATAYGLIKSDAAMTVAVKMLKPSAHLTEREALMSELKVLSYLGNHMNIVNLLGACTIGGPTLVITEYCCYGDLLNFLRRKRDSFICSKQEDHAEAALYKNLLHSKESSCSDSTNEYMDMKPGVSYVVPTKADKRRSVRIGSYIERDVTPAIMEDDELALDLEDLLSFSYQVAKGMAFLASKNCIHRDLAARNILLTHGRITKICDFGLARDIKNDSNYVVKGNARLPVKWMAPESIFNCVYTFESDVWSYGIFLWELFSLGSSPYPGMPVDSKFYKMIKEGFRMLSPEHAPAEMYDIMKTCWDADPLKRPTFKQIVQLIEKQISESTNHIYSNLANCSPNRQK

Flt1 = target: T13, Flt1 (Homo sapiens, UniProt P17948); assay: AlphaScreen kinase assay, Flt1; conditions: read-out: IC50, activity toward kinase Flt1
T13 construct: P1826.pETN6 BI-PTP FLT1 M799-D1165-X WT; His6 (N); made in house; host or cells: E. coli (PTP1B co-expressed)
T13 sequence (P17948 with tags, fused parts or gaps): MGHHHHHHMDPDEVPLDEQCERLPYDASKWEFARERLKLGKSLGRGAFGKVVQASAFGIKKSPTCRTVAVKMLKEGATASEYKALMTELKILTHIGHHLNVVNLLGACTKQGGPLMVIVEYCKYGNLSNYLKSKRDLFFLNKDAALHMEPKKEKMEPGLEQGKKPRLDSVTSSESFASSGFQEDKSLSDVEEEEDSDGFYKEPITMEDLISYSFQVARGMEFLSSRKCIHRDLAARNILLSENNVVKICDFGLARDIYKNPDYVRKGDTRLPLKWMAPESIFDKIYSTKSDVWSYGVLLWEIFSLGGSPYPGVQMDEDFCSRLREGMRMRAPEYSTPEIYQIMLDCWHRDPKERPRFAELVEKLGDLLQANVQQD

Met = target: T14, Met (Homo sapiens, UniProt P08581); assay: AlphaScreen kinase assay, Met; conditions: read-out: IC50, activity toward kinase Met
T14 construct: P1818.pETN6 BI-PTP MET G1056-G1364-X WT; His6 (N); made in house; host or cells: E. coli (PTP1B co-expressed)
In short: as §1

Syk = Syk (Homo sapiens, UniProt P43405); assay: AlphaScreen kinase assay, Syk; conditions: read-out: IC50, activity toward kinase Syk
Text: AlphaScreen assay was used to screen additional kinases. The assay is similarly dependent on the phosphorylation of a peptide substrate. In this assay, an antibody that recognizes phosphorylated substrate is bound to an acceptor bead. The peptide substrate is attached to biotin, which binds to a donor head that contains streptavidin. Thus phosphorylated substrate is bound by antibody and streptavidin, bringing the donor and acceptor heads into close proximity when kinase is not inhibited. The donor produces singlet oxygen which results in emission from the acceptor when they are in close proximity. Conversely, when kinase is inhibited, the donor and acceptor beads are not associated and the emission from the acceptor is reduced.
AlphaScreen assays were done using compounds dissolved in DMSO to a concentration of 20 mM. The compounds were diluted accordingly to the desired final concentrations in each sample well, using 1:3 serial dilution for a total of 8 concentration points.

Btk = target: T15, Btk (Homo sapiens, UniProt Q06187); assay: Z'-Lyte FRET kinase assay (Invitrogen), Btk; conditions: read-out: IC50, activity toward kinase Btk
T15 construct: purchased Invitrogen (assay run by Invitrogen)

FGFR1 = target: T16, FGFR1 (Homo sapiens, UniProt P11362, C488A/C584S); assay: AlphaScreen kinase assay, FGFR1; conditions: read-out: IC50, activity toward kinase FGFR
T16 construct: P1351.pET N6 BI-PTP FGFR A458-E765-X C488A, C584S; made in house; host or cells: E. coli (PTP1B co-expressed)
T16 sequence (P11362 458-765 C488A/C584S): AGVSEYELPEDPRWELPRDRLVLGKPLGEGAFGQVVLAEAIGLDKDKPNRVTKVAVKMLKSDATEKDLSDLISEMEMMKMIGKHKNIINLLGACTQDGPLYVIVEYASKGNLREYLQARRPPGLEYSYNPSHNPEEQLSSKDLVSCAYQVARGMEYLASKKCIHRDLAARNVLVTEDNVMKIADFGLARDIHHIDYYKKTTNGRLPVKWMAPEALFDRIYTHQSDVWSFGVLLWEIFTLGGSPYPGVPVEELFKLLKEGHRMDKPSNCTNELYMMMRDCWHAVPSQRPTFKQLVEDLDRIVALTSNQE

Fms = target: T17, Fms (Homo sapiens, UniProt P07333); assay: AlphaScreen kinase assay, Fms; conditions: read-out: IC50, activity toward kinase Fms
T17 construct: purchased Upstate Biotechnology

Flt4 = target: T18, Flt4 (Homo sapiens, UniProt P35916); assay: AlphaScreen kinase assay, Flt4; conditions: read-out: IC50, activity toward kinase Flt4
T18 construct: purchased ProQinase GmbH (Freiburg, Germany)
In short: as §1

Src = target: T19, Src (Homo sapiens, UniProt P12931); assay: AlphaScreen kinase assay, Src; conditions: read-out: IC50, activity toward kinase Src
T19 construct: P1144. pET-N6 BI-PTP SRC V86-L536-X; made in house

| IC50 (Stk6) [µM] | IC50 (MAPKAPK2) [µM] | IC50 (Kdr) [µM] | IC50 (Abl) [µM] | IC50 (B-Raf V600E) [µM] | IC50 (Ret) [µM] | IC50 (Jnk1) [µM] | IC50 (B-Raf) [µM] | IC50 (Jnk2) [µM] | IC50 (Jnk3) [µM] | IC50 (Fak) [µM] | IC50 (Kit) [µM] | IC50 (Flt1) [µM] | IC50 (Met) [µM] | IC50 (Syk) [µM] | IC50 (Btk) [µM] | IC50 (FGFR1) [µM] | IC50 (Fms) [µM] | IC50 (Flt4) [µM] | IC50 (Src) [µM] | Structure (SMILES) |
| --- | --- | --- | --- | --- | --- | --- | --- | --- | --- | --- | --- | --- | --- | --- | --- | --- | --- | --- | --- | --- |
| ≤ 10 | ≤ 10 | ≤ 10 |  |  |  |  |  |  |  |  |  |  |  |  |  |  |  |  |  | Nc1ccc(Sc2c[nH]c3nccc(-c4cccc(CO)c4)c23)cc1 [Compound P-0077] |
| ≤ 10 |  | ≤ 10 | ≤ 10 | ≤ 10 | ≤ 10 | ≤ 10 | ≤ 10 | ≤ 10 | ≤ 10 | ≤ 10 | ≤ 10 | ≤ 10 | ≤ 10 | ≤ 10 | ≤ 10 | ≤ 10 | ≤ 10 |  |  | COc1cccc(C(=O)c2c[nH]c3ncc(-c4cccc(/C=C/C(=O)O)c4)cc23)c1 [Compound P-0054] |
|  |  |  | ≤ 10 | ≤ 10 | ≤ 10 | ≤ 10 | ≤ 10 | ≤ 10 | ≤ 10 |  | ≤ 10 |  |  | ≤ 10 |  | ≤ 10 |  | ≤ 10 | ≤ 10 | Cc1ccccc1C(=O)c1c[nH]c2ncc(-c3cccc(N)c3)cc12 [Compound P-0599] |
